Data from publication PMC10786919, “Design-rules for stapled peptides with in vivo activity and their application to Mdm2/X antagonists” (Nature Communications, 2024).
pEC50, pKd: −log10 of the molar value. ≈ marks a conversion by molar mass, not a printed value. Read-outs that look alike come from different tables or passages of the source. Positions of bridges follow the written chain, without caps; N, C: chain ends. Non-standard residues stand in square brackets, D forms with d. Residues, ends and D or L forms follow the SMILES beside them. Lys(N3) = [N-]=[N+]=NCCCC[C@H](N)C(=O)O; hArg = N=C(N)NCCCC[C@H](N)C(=O)O; R8 = C=CCCCCCC[C@@](C)(N)C(=O)O; Cba = N[C@@H](CC1CCC1)C(=O)O; S5 = C=CCCC[C@](C)(N)C(=O)O; βAla = NCCC(=O)O

Key:
human Mdm2 1–125 = target: T1, human Mdm2 1–125 (Homo sapiens, UniProt Q00987); experiment: Mdm2 binding by competitive fluorescence anisotropy assay (FP binding); details: read-out: FP binding assay KD
T1 construct: GST (N); His6 (internal); TEV cleavage site (ENLYFQG) (internal); made in house; host or cells: BL21 (DE3) Rosetta T1R Escherichia coli
T1 sequence (Q00987 with tags, fused parts or gaps): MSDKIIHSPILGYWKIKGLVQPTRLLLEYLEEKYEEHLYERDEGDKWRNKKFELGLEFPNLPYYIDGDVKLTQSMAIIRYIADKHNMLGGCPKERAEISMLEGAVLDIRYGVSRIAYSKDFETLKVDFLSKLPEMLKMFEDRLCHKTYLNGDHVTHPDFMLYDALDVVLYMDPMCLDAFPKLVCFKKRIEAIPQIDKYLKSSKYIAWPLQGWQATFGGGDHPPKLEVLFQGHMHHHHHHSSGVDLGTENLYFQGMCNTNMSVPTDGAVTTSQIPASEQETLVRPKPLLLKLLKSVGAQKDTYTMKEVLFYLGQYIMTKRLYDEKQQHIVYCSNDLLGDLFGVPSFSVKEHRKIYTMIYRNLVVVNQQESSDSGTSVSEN

[1] = system: p53 responsive β-lactamase reporter in HCT116 cells; experiment: cells; assay type: cell-based
Summary of the method: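 HCT116 cells stably carrying a p53-responsive β-lactamase reporter, seeded at 8000 cells/well, with 0.5% DMSO final. Reporter activity read by ToxBLAzer Dual Screen. Values are geometric means of at least three biological replicates.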

[2] = Lactate dehydrogenase (LDH) release assay; assay type: cell-based
Summary of the method: (§1)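 Read-out was lactate dehydrogenase release, reflecting loss of membrane integrity, in reporter-engineered HCT116 cells (p53-responsive β-lactamase) seeded at 8000 cells per well. Final DMSO was 0.5%, and reported values are geometric means from three or more biological repeats.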

HCT116 cells = experiment: Lactate dehydrogenase (LDH) release assay; assay type: cell-based
Summary of the method: as §1

[3] = system: Jump-In T-REx CHO-K1 BLA cells; experiment: cells; assay type: cell-based; details: for pEC50: read-out: TETCHO: Counterscreen EC50
[4] = Circular dichroism (CD) helicity; assay type: physicochemical
Procedure: A total of 5 µL of the 10 mM stock peptide was mixed with 45 µL of 100% methanol, and dried for 2 h in the SpeedVac concentrator (Thermo Scientific). The dried peptide was reconstituted in a buffer (1 mM Hepes pH 7.4 and 5% methanol) to a concentration of 1 mM. The peptide sample was placed in a quartz cuvette with a path length of 0.2 cm. The peptide concentration was determined by the absorbance of the peptide at […]. The CD spectrum was recorded from 300 to 190 nm using the Chirascan-plus qCD machine (Applied Photophysics, Surrey, UK), at 25 °C. All experiments were done in duplicates. The CD spectrum was converted to mean residue ellipticity before deconvolution and estimation of the secondary structure components of the peptide using the CDNN software (distributed by Applied Photophysics). Measurements were taken at least twice and were reported as arithmetic means.

[5] = Solubility assay (kinetic solubility, PBS pH 7); assay type: physicochemical; details: for solubility kinetic: pH 7, aqueous buffer, kinetic from dmso stock, read-out: Solubility
Summary of the method: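 Values derive from peak-area ratios of sample versus a 100 µM standard, scaled by that standard's concentration.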

[6] = Nanoclick permeability assay
Summary of the method: (§2)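 Azido-peptide permeability was read as loss of NanoBRET signal (donor 450 nm, acceptor 610 nm) after adding NanoBret618-azide at 10 μM final.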

[7] = system: cells transiently transfected with the NanoLuc-HaloTag vector; experiment: Nanoclick permeability assay; details: 4Hr
Summary of the method: as §2

[8] = Experimental LogD (partition coefficient); details: for logD: not stated, Partition Coeff LogD
physchem [9] = experiment: physchem
physchem [10] = experiment: physchem; remark: listed apart in the source
[11] = 0% FBS 4Hr, read-out: p53 reporter assay: EC50

Compound	pKd (human Mdm2 1–125)	pEC50 [1, 11]	pEC50 ([2]; LDH: Cytotoxicity assay: EC50)	LDH: Cytotoxicity assay: % Effect (HCT116 cells)	TETCHO: Counterscreen % Effect ([3]; 0% FBS 4Hr)	pEC50 ([3]; 0% FBS 4Hr)	TETCHO: Counterscreen % Effect ([3]; 0% FBS 16Hr)	CD % Helicity [4]	solubility kinetic ([5]; pH 7, PBS)	logD [8]	also measured
CC(=O)N[C@H](C(=O)N[C@@H](CO)C(=O)NC(C)(Cc1ccccc1)C(=O)N[C@@H]1CCCCCCC=CCCC[C@@H](C(N)=O)NC(=O)C(C)(CC(C)C)NC(=O)[C@H](CC(C)C)NC(=O)[C@H](C)NC(=O)[C@H](Cc2c[nH]c3ccccc23)NC(=O)[C@H](Cc2ccc(O)cc2)NC(=O)[C@H](CCC(=O)O)NC1=O)[C@@H](C)O (some centres unmarked) [MP-792]	6.70	4.91	< 4.30	10.77%	20.04%	4.31	-1.02%	25.3%	–	–	–
CC(=O)N[C@@H](CC(C)C)C(=O)N[C@H](C(=O)N[C@@H](Cc1ccccc1)C(=O)N[C@]1(C)CCCCCCC=CCCC[C@@](C)(C(=O)N[C@@H](C)C(=O)N[C@@H](C)C(=O)N[C@@H](C)C(=O)N[C@@H](C)C(=O)N[C@@H](C)C(=O)N[C@H](C)C(N)=O)NC(=O)[C@H](CC(C)C)NC(=O)[C@H](CCC(N)=O)NC(=O)[C@H](C)NC(=O)[C@H](Cc2c[nH]c3ccccc23)NC(=O)[C@H](Cc2ccc(O)cc2)NC(=O)[C@H](CCC(=O)O)NC1=O)[C@@H](C)O [ALRN-6924, Ac-LTF(R8)EYWAQL(S5)AAAAA(dA)-NH2, reference compound] (Ac-LTF[R8]EYWAQL[S5]AAAAA[dA]-NH2; staple 4-11)	–	–	–	–	4.454%	< 4.30	–	51.25%	–	–	p53 reporter assay % Effect ([1]; 0% FBS 4Hr): 95.6%; pEC50 ([1]; 0% FBS 4Hr, read-out: p53 reporter assay EC50): 6.85; p53 reporter assay % Effect ([1]; 10% FBS 16Hr): 77.82%; pEC50 ([1]; 10% FBS 16Hr, read-out: p53 reporter assay EC50): 6.49; pEC50 ([1]; read-out: Cell EC50 (4 hr, 0% FBS), p53 reporter assay, 4 hr, 0% FBS): 6.85; pEC50 ([1]; read-out: Cell EC50 (16 hr, 10% FBS), p53 reporter assay, 16 hr, 10% FBS): 6.49; pEC50 ([2]; 0% FBS 4Hr, read-out: LDH: Cytotoxicity assay EC50): < 4.29; pEC50 ([2]; 10% FBS 16Hr, read-out: LDH: Cytotoxicity assay EC50): < 4.29; LDH: Cytotoxicity assay % Effect (HCT116 cells; 0% FBS 4Hr): 0.8526%; LDH: Cytotoxicity assay % Effect (HCT116 cells; 10% FBS 16Hr): 8.856%; TETCHO: Counterscreen % Effect ([3]; 10% FBS 16Hr): -11.62%; pEC50 ([3]; 10% FBS 16Hr): < 4.30; Solubility [5]: P.B.; Solubility ([5]; pH 7, PBS): Poorly Behaved; Aqueous solution helicity ([4]; circular dichroism): 51.25%; cell entry EC50 [6]: > 10 µM; Nanoclick permeability assay % Effect [7]: 33.65%; Partition Coeff LogD [8]: Poorly Behaved
CC(=O)N[C@@H](CCCCN=[N+]=[N-])C(=O)NCCC(=O)N[C@@H](CC(C)C)C(=O)N[C@H](C(=O)N[C@@H](Cc1ccccc1)C(=O)N[C@]1(C)CCCCCCC=CCCC[C@@](C)(C(=O)N[C@@H](CO)C(=O)N[C@@H](C)C(=O)N[C@@H](C)C(N)=O)NC(=O)[C@H](CC2CCC2)NC(=O)[C@H](CCCCNC(=N)N)NC(=O)[C@H](C)NC(=O)[C@H](Cc2c[nH]c3ccccc23)NC(=O)[C@H](Cc2ccc(O)cc2)NC(=O)[C@H](CCC(=O)O)NC1=O)[C@@H](C)O [MP-900] (Ac-[Lys(N3)][βAla]LTF[R8]EYWA[hArg][Cba][S5]SAA-NH2; staple 6-13)	–	–	–	–	–	–	–	–	10 µM (≈ 20.1 µg/mL)	3.03	cell entry EC50 ([6]; Nanoclick permeability assay EC50): 1.04 µM; EPSA (physchem [9]): 187 A^2
CC(=O)N[C@H](C(=O)N[C@@H](CO)C(=O)NC(C)(Cc1ccccc1)C(=O)N[C@]1(C)CCCCCCC=CCCC[C@@](C)(C(N)=O)NC(=O)[C@H](CC(C)C)NC(=O)[C@H](CC(C)C)NC(=O)[C@H](C)NC(=O)[C@H](Cc2c[nH]c3ccccc23)NC(=O)[C@H](Cc2ccc(O)cc2)NC(=O)[C@H](CCC(=O)O)NC1=O)[C@@H](C)O (some centres unmarked) [MP-159]	6.28	4.43	4.67	47.15%	165.5%	4.52	55.93%	40.4%	85.5 µM (≈ 126 µg/mL)	2.75	EPSA (physchem [10]): 210 A^2
